Drawing on patent US10414734B2, “5-hydroxyalkylbenzimidazoles as mIDH1 inhibitors” (BAYER PHARMA AKTIENGESELLSCHAFT, priority 2015, dated 2019), this text covers IC50 for nine compounds.

A word on the pIC50: it is −log10 of the IC50, conventionally taken in molar units. Lower therefore signals a high IC50.

pIC50: −log10 of the molar value.

In one assay the target is IDH1 R132H enzyme (Homo sapiens (Human), UniProt O75874, R132H). The assay can be described thus: Mutant IDH1 R132H biochemical assay. Conditions: luminescent NADPH consumption readout; 1.5 nM enzyme, 1 μM NADPH, 250 μM α-KG, 30 min, 32° C. The protocol:
Mutant IDH1 R132H Biochemical Assay
mIDH1 catalyzes the NADPH-dependent reduction of alpha-ketoglutarate (α-KG) to (2R)-2-hydroxyglutarate (2-HG). NADPH consumption was measured by luminescent readout.
The biochemical reactions were performed at 32° C. in 384-well plates using a reaction volume of 41 μL and the following assay buffer conditions: 50 mM Tris pH 7.5, 100 mM NaCl, 20 mM MgCl2, 0.05% BSA, 0.01% Brij, 1 μM NADPH, and 250 μM α-KG. The IDH1 R132H enzyme was used in a final concentration of 1.5 nM. Test compounds were used in a concentration range between 0.002 and 10 μM. The final DMSO concentration was 2.4%.
The reaction was incubated for 30 minutes, then 40 μL of detection mix (0.75 μg/ml Luciferase, 0.02 U/ml Oxidoreductase, 4 μg/mL FMN, 2 μL/ml decanal/ethanol, 50 mM Tris pH 7.5, 0.5% Glycerin, 0.01% Tween-20, 0.05% BSA) was added. Luminescence was measured on a luminescent reader (10 seconds measuring time, 1 second integration period, 30% sensitivity). The decrease in luminescence is proportional to mIDH1 activity. IC50 values are determined by interpolation from plots of relative luminescence versus inhibitor concentration.

Assay [1] deals with LN229 R132H cells overexpressing mutated isocitrate dehydrogenase (mIDH). The assay can be described thus: Mutant IDH1 cellular assay (2-HG in medium). Type of assay: cell-based. Conditions: 2-HG in medium after 24 hours, fluorescence readout. As to the method:
Mutant IDH1 Cellular Assay
Levels of (2R)-2-hydroxyglutarate (2HG) were measured in medium of a cell line with overexpression of mutated isocitrate dehydrogenase (mIDH) protein. mIDH catalyzes the NADPH-dependent reduction of alpha-ketoglutarate to 2-HG. Cells (LN229 R132H, Mohrenz et al., Apoptosis (2013) 18:1416-1425) were grown in DMEM containing 10% FCS. They were harvested by trypsin and seeded into 96-well plates. Cells were incubated overnight at 37° C. in 5% CO2. The next day test compounds were added to each cell well. The final concentration of DMSO was 0.1% and DMSO controls were included. The plates were then placed in an incubator for 24 hours.
2-HG was measured according to Balss et al. (Acta Neuropathol (2012) 124: 883-891). Briefly, perchloric acid was added to each well and the plates were centrifuged. Aliquots are removed and incubated with hydroxyglutarate dehydrogenase (HGDH), diaphorase, NAD+, and resazurin. The conversion of resazurin to resorufin was detected by fluorescence spectroscopy at Ex 540 nm Em 600 nm. The increase in fluorescence is proportional to 2-HG production. IC50 values are determined by interpolation from plots of relative fluorescence vs inhibitor concentration.

Chain of IDH1 R132H enzyme (O75874 whole entry R132H): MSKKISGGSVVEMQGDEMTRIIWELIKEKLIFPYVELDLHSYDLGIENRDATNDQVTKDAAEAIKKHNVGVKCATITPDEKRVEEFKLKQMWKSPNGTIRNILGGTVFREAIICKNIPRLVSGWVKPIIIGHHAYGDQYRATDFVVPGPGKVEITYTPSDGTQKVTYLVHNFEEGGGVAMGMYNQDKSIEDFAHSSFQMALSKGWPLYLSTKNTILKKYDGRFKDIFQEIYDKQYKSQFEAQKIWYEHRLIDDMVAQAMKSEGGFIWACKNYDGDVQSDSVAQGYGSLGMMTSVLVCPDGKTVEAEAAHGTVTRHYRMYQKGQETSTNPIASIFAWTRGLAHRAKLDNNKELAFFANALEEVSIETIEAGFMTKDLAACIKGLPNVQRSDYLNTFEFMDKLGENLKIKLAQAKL

As for `COc1cc2c(cc1C(C)(C)O)nc(Nc1ccc(OC(F)(F)F)cc1)n2[C@H]1C[C@@H](C)CC(C)(C)C1` (single isomer, unassigned; enantiomer a) [Example 2-7-1, 2-(6-methoxy-2-{[4-(trifluoromethoxy)phenyl]amino}-1-[(cis)-3,3,5-trimethylcyclohexyl]-1H-benzimidazol-5-yl)propan-2-ol, enantiomer A], the results for the pIC50 (at IDH1 R132H enzyme; in assay [1]) were 7.30 and 6.32, respectively.

With `Cc1cc2c(cc1C(C)(C)O)nc(Nc1ccc(OC(F)(F)F)cc1)n2C1CC(C)(C)CC(C)(C)C1` [Example 2-4, 2-[6-methyl-1-(3,3,5,5-tetramethylcyclohexyl)-2-{[4-(trifluoromethoxy)phenyl]amino}-1H-benzimidazol-5-yl]propan-2-ol], the pIC50 was 7.52 on IDH1 R132H enzyme and 6.26 in assay [1] (Homo sapiens, LN-229, 24 h).

Take `C[C@@H]1C[C@H](n2c(Nc3ccc(OC(F)(F)F)cc3)nc3cc(C(C)(C)O)ccc32)CC(C)(C)C1` (single isomer, unassigned; enantiomer b) [Example 2-2-2, 2-(2-{[4-(trifluoromethoxy)phenyl]amino}-1-[(cis)-3,3,5-trimethylcyclohexyl]-1H-benzimidazol-5-yl)propan-2-ol, enantiomer B]: the pIC50 at IDH1 R132H enzyme is 7.40; in assay [1] (Homo sapiens, LN-229, 24 h), 6.30.

In the case of `COc1cc2c(cc1CO)nc(Nc1ccc(OC(F)(F)F)cc1)n2[C@H]1C[C@@H](C)CC(C)(C)C1` (single isomer, unassigned; enantiomer b) [Example 2-6-2, (6-methoxy-2-{[4-(trifluoromethoxy)phenyl]amino}-1-[(cis)-3,3,5-trimethylcyclohexyl]-1H-benzimidazol-5-yl)methanol, enantiomer B], the pIC50 against IDH1 R132H enzyme is 6.96; in assay [1], 6.20.

In the case of `Cc1cc2c(cc1[C@@H](O)C(F)(F)F)nc(Nc1ccc(OC(F)(F)F)cc1)n2C1CC(C)(C)CC(C)(C)C1` (racemic) [Example 2-5, (±) 2,2,2-trifluoro-1-[6-methyl-1-(3,3,5,5-tetramethylcyclohexyl)-2-{[4-(trifluoromethoxy)phenyl]amino}-1H-benzimidazol-5-yl]ethanol], the pIC50 at IDH1 R132H enzyme was 7.52; in assay [1] (Homo sapiens, LN-229, 24 h) it was 6.10.

Take `COc1cc2c(cc1CO)nc(Nc1ccc(OC(F)(F)F)cc1)n2[C@H]1C[C@@H](C)CC(C)(C)C1` (single isomer, unassigned; enantiomer a) [Example 2-6-1, (6-methoxy-2-{[4-(trifluoromethoxy)phenyl]amino}-1-[(cis)-3,3,5-trimethylcyclohexyl]-1H-benzimidazol-5-yl)methanol, enantiomer A]: the figures for the pIC50 (on IDH1 R132H enzyme; in assay [1]) were 7.70 and 6.85, respectively.

Turning to `C[C@@H]1C[C@H](n2c(Nc3ccc(OC(F)(F)F)cc3)nc3cc(CO)ccc32)CC(C)(C)C1` (single isomer, unassigned; enantiomer a) [Example 2-1-1, (2-{[4-(trifluoromethoxy)phenyl]amino}-1-[(cis)-3,3,5-trimethylcyclohexyl]-1H-benzimidazol-5-yl)methanol, enantiomer A], the pIC50 against IDH1 R132H enzyme is 7.30; in assay [1] (Homo sapiens, LN-229, 24 h) it was 5.89.

In the case of `COc1cc2c(cc1C(C)(C)O)nc(Nc1ccc(OC(F)(F)F)cc1)n2[C@H]1C[C@@H](C)CC(C)(C)C1` (single isomer, unassigned; enantiomer b) [Example 2-7-2, 2-(6-methoxy-2-{[4-(trifluoromethoxy)phenyl]amino}-1-[(cis)-3,3,5-trimethylcyclohexyl]-1H-benzimidazol-5-yl)propan-2-ol, enantiomer B], the pIC50 is 7.70 against IDH1 R132H enzyme and 7.05 in assay [1].

For `COc1cc2c(cc1C(C)(C)O)nc(Nc1ccc(OC(F)(F)F)cc1)n2[C@H]1C[C@@H](C)CC(C)(C)C1` (racemic) [Example 2-7, (±) 2-(6-methoxy-2-{[4-(trifluoromethoxy)phenyl]amino}-1-[(cis)-3,3,5-trimethylcyclohexyl]-1H-benzimidazol-5-yl)propan-2-ol], on IDH1 R132H enzyme, the pIC50 was 7.70.
